ChEMBL document CHEMBL3585347, “Isolation of cholinesterase and β-secretase 1 inhibiting compounds from Lycopodiella cernua” (Bioorg Med Chem, 2015)
Calls of active or inactive are those of the source. No cut-off for these calls is given here.

Tests used:
[1] = biological target: T1, Acetylcholinesterase (Homo sapiens, UniProt P22303); assay: Inhibition of AChE (unknown origin) using acetylthiocholine as substrate assessed as substrate hydrolysis by spectrophotometric/Ellman method
[2] = biological target: T2, Cholinesterase (Homo sapiens, UniProt P06276); assay: Inhibition of BChE (unknown origin) using butyrylthiocholine as substrate assessed as substrate hydrolysis by spectrophotometric/Ellman method
T2 sequence (P06276 whole entry): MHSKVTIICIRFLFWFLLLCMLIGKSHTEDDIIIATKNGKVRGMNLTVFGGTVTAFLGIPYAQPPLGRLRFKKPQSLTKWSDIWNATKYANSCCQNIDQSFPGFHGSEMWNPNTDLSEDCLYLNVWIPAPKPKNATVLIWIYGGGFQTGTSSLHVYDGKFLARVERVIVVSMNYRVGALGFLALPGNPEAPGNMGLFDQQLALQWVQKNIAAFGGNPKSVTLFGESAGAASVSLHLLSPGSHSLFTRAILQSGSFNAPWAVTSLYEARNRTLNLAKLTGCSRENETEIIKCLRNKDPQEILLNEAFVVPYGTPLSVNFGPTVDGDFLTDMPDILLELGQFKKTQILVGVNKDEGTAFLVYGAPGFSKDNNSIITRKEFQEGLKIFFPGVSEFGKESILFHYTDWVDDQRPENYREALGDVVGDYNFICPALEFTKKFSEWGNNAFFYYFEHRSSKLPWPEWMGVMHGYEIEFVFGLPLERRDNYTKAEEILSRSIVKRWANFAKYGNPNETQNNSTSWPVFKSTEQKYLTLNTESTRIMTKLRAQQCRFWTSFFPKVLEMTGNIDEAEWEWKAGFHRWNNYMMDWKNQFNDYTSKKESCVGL

[3] = biological target: Beta-secretase 1 (Homo sapiens, UniProt P56817); assay: Inhibition of human recombinant BACE1 by fluorescence resonance energy transfer (FRET) assay
Sequence of Beta-secretase 1 (P56817 whole entry): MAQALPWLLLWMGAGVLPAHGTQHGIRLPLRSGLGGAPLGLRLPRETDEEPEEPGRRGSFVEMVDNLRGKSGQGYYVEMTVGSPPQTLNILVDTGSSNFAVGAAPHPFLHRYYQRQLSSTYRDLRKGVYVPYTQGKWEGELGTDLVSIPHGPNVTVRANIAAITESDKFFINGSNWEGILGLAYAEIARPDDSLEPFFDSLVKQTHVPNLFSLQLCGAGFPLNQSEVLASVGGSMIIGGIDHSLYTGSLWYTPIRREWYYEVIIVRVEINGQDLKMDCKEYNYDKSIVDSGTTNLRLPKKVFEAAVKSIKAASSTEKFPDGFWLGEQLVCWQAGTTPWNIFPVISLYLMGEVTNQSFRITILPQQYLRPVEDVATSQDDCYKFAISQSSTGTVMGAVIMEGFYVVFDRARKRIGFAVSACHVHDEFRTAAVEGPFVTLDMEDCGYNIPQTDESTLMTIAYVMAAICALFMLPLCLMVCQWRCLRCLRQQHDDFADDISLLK

[4] = biological target: T1, Acetylcholinesterase; assay: Mixed type inhibition of AChE (unknown origin) by Lineweaver-Burk plot analysis
[5] = biological target: T1, Acetylcholinesterase; assay: Inhibition of AChE (unknown origin) by Dixon plot analysis
[6] = biological target: T2, Cholinesterase; assay: Mixed type inhibition of BChE (unknown origin) by Lineweaver-Burk plot analysis
[7] = biological target: T2, Cholinesterase; assay: Inhibition of BChE (unknown origin) by Dixon plot analysis

T1 sequence (P22303 whole entry): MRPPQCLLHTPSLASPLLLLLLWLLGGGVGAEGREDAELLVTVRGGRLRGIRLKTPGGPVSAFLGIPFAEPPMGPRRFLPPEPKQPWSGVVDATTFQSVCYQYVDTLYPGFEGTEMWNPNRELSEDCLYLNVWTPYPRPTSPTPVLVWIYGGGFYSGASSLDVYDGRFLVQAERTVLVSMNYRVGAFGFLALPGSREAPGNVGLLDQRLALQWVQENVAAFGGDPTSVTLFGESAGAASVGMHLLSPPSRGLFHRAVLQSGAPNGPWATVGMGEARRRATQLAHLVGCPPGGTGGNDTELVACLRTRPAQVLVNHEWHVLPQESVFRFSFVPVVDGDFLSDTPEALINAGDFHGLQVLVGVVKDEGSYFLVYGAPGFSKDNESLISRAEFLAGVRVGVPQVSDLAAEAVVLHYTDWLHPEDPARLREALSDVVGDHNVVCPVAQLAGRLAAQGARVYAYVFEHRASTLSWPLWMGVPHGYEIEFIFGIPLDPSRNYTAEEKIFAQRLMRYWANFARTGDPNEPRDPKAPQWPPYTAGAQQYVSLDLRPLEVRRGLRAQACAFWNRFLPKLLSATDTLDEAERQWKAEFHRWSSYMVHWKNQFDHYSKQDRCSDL

Compound | IC50 [1] [µM] | IC50 [2] [µM] | IC50 [3] [µM] | inhibition [4] | Ki [5] [µM] | inhibition [6] | Ki [7] [µM]
CC1(C)[C@@H](O)CC[C@@]2(C)[C@H]1CC[C@@]1(C)C[C@@]3(O)CC[C@H]4C(C)(C)[C@@H](O)CC[C@]4(C)[C@H]3CC[C@@H]12 | > 30 | > 30 | > 10 |  |  |  | 
C[C@@]12CC[C@@H]3[C@](C)(CC[C@H](O)[C@]3(C)C(=O)O)[C@H]1CC[C@H]1C(=CC(=O)[C@@H]3[C@]1(C)CC[C@@H](O)[C@]3(C)CO)C2 | > 30 | > 30 | > 10 |  |  |  | 
COc1ccc(C(=O)O[C@H]2CC[C@@]3(C)[C@@H](CC[C@@]4(C)C[C@@]5(O)[C@H](CC[C@@H]43)[C@@]3(C)CC[C@@H](O)C(C)(C)[C@@H]3C[C@@H]5O)[C@@]2(C)C(=O)O)cc1O | 9.98 | > 30 | 0.98 |  |  |  | 
CC(=O)O[C@H]1CC[C@@]2(C)[C@@H](CC[C@@]3(C)C[C@@]4(O)CC[C@H]5C(C)(C)[C@@H](OC(C)=O)CC[C@]5(C)[C@H]4CC[C@@H]32)C1(C)C | 0.91 | > 30 | > 10 | Active | 2.49 |  | 
CC1(C)[C@H](O)CC[C@]2(C)[C@H]3CC[C@H]4[C@@](C)(CC[C@@H]5[C@]4(C)CC[C@@H](O)[C@]5(C)C(=O)O)CC3=CC(=O)[C@@H]12 | > 30 | > 30 | > 10 |  |  |  | 
COC(=O)[C@]1(C)[C@@H]2CC[C@@]3(C)CC4=CC(=O)[C@@H]5[C@](C)(CC[C@@H](O)[C@]5(C)CO)[C@H]4CC[C@@H]3[C@@]2(C)CC[C@@H]1O [LYCERNUIC KETONE A] | > 30 | > 30 | > 10 |  |  |  | 
CC1(C)C(=O)CC[C@@]2(C)[C@H]1CC[C@@]1(C)CC3=CC(=O)[C@H]4C(C)(C)[C@H](O)CC[C@]4(C)[C@H]3CC[C@@H]12 | 10.7 | > 30 | 0.23 |  |  | Active | 4.78
C[C@@]12CC[C@@H]3[C@](C)(CC[C@H](OC(=O)/C=C/c4ccc(O)cc4)[C@]3(C)C(=O)O)[C@H]1CC[C@H]1C(=CC[C@@H]3[C@]1(C)CC[C@@H](O)[C@]3(C)CO)C2 | > 30 | > 30 | 1.07 |  |  |  | 
CCCC[C@@H](O)/C=C/C=C/C(=O)O | 0.22 | > 30 | 6.91 | Active | 1.17 |  | 
C[C@@]12CC[C@@H]3[C@](C)(CC[C@H](OC(=O)c4ccc(O)cc4)[C@]3(C)C(=O)O)[C@H]1CC[C@@H]1[C@@]3(C)CC[C@@H](O)[C@](C)(CO)[C@@H]3C[C@H](O)[C@@]1(O)C2 | > 30 | > 30 | 0.31 |  |  |  | 
CC1(C)[C@H](O)CC[C@@]2(C)[C@H]1CC[C@@]1(C)CC3=CC[C@H]4C(C)(C)[C@H](O)CC[C@]4(C)[C@H]3CC[C@@H]12 | > 30 | > 30 | > 10 |  |  |  | 
C[C@@]12CC[C@@H]3[C@](C)(CC[C@H](OC(=O)CCc4ccc(O)cc4)[C@]3(C)C(=O)O)[C@H]1CC[C@H]1C(=CC[C@@H]3[C@]1(C)CC[C@@H](O)[C@]3(C)CO)C2 | 1.69 | 0.42 | > 10 | Active | 7.97 |  | 0.99
CC1(C)[C@H](O)CC[C@@]2(C)[C@H]1CC[C@@]1(C)CC3=CC[C@H]4C(C)(C)[C@@H](O)CC[C@]4(C)[C@H]3CC[C@@H]12 | > 30 | 1.37 | > 10 |  |  | Active | 4.88
